Target: Glycogen synthase kinase-3 beta (Homo sapiens, UniProt P49841)
Assay: Inhibition of human GSK3beta using YRRAAVPPSPSLSRHSSPHQ(pS)EDEEE as substrate in presence of gamma-33P-ATP

Chain of Glycogen synthase kinase-3 beta (P49841 whole entry): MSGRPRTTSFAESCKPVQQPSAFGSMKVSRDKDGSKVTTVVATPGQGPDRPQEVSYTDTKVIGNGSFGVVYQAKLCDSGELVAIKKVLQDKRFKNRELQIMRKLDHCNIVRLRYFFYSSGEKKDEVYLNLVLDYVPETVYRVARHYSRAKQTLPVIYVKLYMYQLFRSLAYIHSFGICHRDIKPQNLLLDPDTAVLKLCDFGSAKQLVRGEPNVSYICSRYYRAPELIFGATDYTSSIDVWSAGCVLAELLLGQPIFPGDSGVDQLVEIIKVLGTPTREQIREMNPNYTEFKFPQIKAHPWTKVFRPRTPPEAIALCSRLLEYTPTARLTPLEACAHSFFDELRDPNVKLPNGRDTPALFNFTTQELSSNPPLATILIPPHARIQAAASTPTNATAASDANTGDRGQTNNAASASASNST

Structure (SMILES)	IC50
O=C(/C=C/c1cnc2[nH]cc(-c3ccccc3)c2c1)N[C@@H](CO)Cc1ccccc1	752 nM
O=C(CNC(=O)c1ccc2[nH]cc(-c3ccccc3)c2c1)NCCc1c[nH]c2ccccc12	> 50000 nM
O=C(CNC(=O)c1cnc2[nH]c(-c3ccccc3)cc2c1)NCCc1c[nH]c2ccccc12	> 50000 nM
O=C(/C=C/c1cnc2[nH]cc(-c3ccccc3)c2c1)NCCc1c[nH]cn1	49 nM
O=C(CNC(=O)c1cnc2[nH]cc(-c3ccccc3)c2c1)NCCc1c[nH]cn1	2610 nM
C[C@@H](NC(=O)/C=C/c1cnc2[nH]cc(-c3ccccc3)c2c1)[C@@H](O)c1ccccc1	180 nM
O=C(CNC(=O)c1cnc2[nH]cc(C(=O)c3ccccc3)c2c1)NCCc1c[nH]c2ccccc12	15700 nM
O=C(/C=C/c1cnc2[nH]cc(-c3ccccc3)c2c1)NCCc1ccccn1	19 nM
O=C(/C=C/c1cnc2[nH]cc(-c3ccccc3)c2c1)NCCc1cccnc1	32 nM
O=C(CNC(=O)c1cnc2[nH]ccc2c1)NCCc1c[nH]c2ccccc12	> 50000 nM
